In one data set the test system is S. rochei A4. Kind of data set: Substrate removal by Streptomyces culture. It is filed as cell-based, Streptomyces rochei. The conditions noted are these: growth period 14 days. An excerpt: (§1) Replicate sterile controls also were run in each experiment.
The test system of another data set is S. badius 252. It is filed as cell-based. The conditions noted are these: streptomyces badius 252 culture, 336 h.
Text: (§2) Microbiol., 1984, 130:2905-2913.
as §1

The next data set deals with S. diastaticus A12. It is filed as cell-based. The conditions noted are these: streptomyces diastaticus a12 culture, 336 h.
Text: as §2, §1

The next data set deals with S. diastaticus A13. It is filed as cell-based. The conditions noted are these: streptomyces diastaticus a13 culture, 336 h.
Text: as §2, §1

A further data set relates to S. rochei A10. It is filed as cell-based. The conditions noted are these: streptomyces rochei a10 culture, 336 h.
Text: as §2, §1

The test system of another data set is S. rochei A14. It is filed as cell-based. The conditions noted are these: streptomyces rochei a14 culture, 336 h.
Text: as §2, §1

The test system of another data set is S. chromofuscus A11. The conditions noted are these: streptomyces chromofuscus a11 culture, 336 h. The protocol:
as §2, §1
The Streptomyces were grown on the same media and under the same conditions as previously described. […] Thus, the spectrophotometric assays for substrates 1-12 were carried out at their specific isobastic points. Degradation was calculated as percent of substrates removed from culture broth, considering the evaporation factor (around 10%).

The next data set concerns S. chromofuscus A20. The conditions noted are these: streptomyces chromofuscus a20 culture, 336 h.
Another data set deals with S. viridosporus T7A. Nature of the data set: Substrate removal by Streptomyces culture. The conditions noted are these: growth period 14 days.

Protocol for S. chromofuscus A20: (§3) Each Streptomyces species was grown in a cotton-plugged 250 ml flask containing 25 ml of the following medium: 0.2M Tris buffer (pH 7.6), 100 ml; vitamin-free Casamino acids (Difco), 1.0 g; thiamine, 100 μg; biotin, 100 μg; D-glucose, 2 g; deionized water, 900 ml.
The dyes were filter-sterilized and added at 0.005% (w/v) to the autoclaved basal medium. Alternatively, azo dye stock solutions were sterilized by filtration (pore size 0.2 μm) and added to autoclaved basal medium at concentrations of 50 or 100 ppm. Three replicates of every culture were incubated, and each strain was grown in media supplemented individually with every substrate. Replicate sterile controls also were run in each experiment. Cultures were incubated at 37° C. for 14 days with shaking (200-250 rpm). Three replicates for each strain growth were incubated in only the basal medium as well.
A one ml sample of culture medium was centrifuged and then diluted 2.5-5.0 fold (actinomycete culture) or 5- to 10-fold (fungal culture) with distilled water. Alternatively, 1.0 ml of fungal supernatant was centrifuged and diluted 5-fold with 10 mM sodium 2,2-dimethylsuccinate buffer (DMS) of pH 4.5. Azo dye substrate present was then measured spectrophotometrically with a Hewlett-Packard 8452 diode array spectrophotometer operated by a PC Vectra computer equipped with HP's MS™-DOS/UV-VIS software. To be certain that changes in substrate spectra were not due to pH variations, the effects of pH on the visible absorption of each compound were also assayed within physiological pH range in the culture media. […] Thus, the spectrophotometric assays for the dyes were typically carried out at their isobestic points. For instance, the spectrophotometric assays were carried out at 450 nm for azo dye 1 and 400 nm for azo dye 2. […] The compounds were quantified by first developing standard curves of absorbance versus concentrations (0-50 μg) and then comparing measured absorbance values to the standard curves.
Protocol for S. viridosporus T7A: as §3
The dyes were filter-sterilized and added at 0.005% (w/v) to the autoclaved basal medium. Alternatively, azo dye stock solutions were sterilized by filtration (pore size 0.2 μm) and added to autoclaved basal medium at concentrations of 50 or 100 ppm. Three replicates of every culture were incubated, and each strain was grown in media supplemented individually with every substrate. Replicate sterile controls also were run in each experiment. […] Three replicates for each strain growth were incubated in only the basal medium as well.
A one ml sample of culture medium was centrifuged and then diluted 2.5-5.0 fold (actinomycete culture) or 5- to 10-fold (fungal culture) with distilled water. Alternatively, 1.0 ml of fungal supernatant was centrifuged and diluted 5-fold with 10 mM sodium 2,2-dimethylsuccinate buffer (DMS) of pH 4.5. […] To be certain that changes in substrate spectra were not due to pH variations, the effects of pH on the visible absorption of each compound were also assayed within physiological pH range in the culture media. While the spectra of sulfanilic acid (Max abs at 250 nm), vanillic acid (Max abs at 252 nm and 286 nm) and acid yellow 9 (Max abs at 336 nm) were unaffected by pH over the tested pH range, the spectra of several novel azo dyes were changed as evidenced by shifts of their Absmax. Thus, the spectrophotometric assays for the dyes were typically carried out at their isobestic points. […] Spectrophotometric measurements were carried out at the absorbance maxima for azo dyes 16, 17, 18, 19, 31, and 32 (See Table 1 below). […] The compounds were quantified by first developing standard curves of absorbance versus concentrations (0-50 μg) and then comparing measured absorbance values to the standard curves.

As for `COc1cc(C(=O)O)ccc1O` [Vanillic acid, 4-hydroxy-3-methoxybenzoic acid, reference compound], the “Percent substrate removed, S. rochei A4” value with S. rochei A4 stood at 100%. Further, the “Percent substrate removed, S. badius 252” value with S. badius 252 is reported as 7%. Besides, the “Percent substrate removed, S. diastaticus A12” value in the data set on S. diastaticus A12 is given as 58%. Besides, in the data set with S. diastaticus A13, the “Percent substrate removed, S. diastaticus A13” value was determined as 34%. Moreover, in the data set on S. rochei A10, the “Percent substrate removed, S. rochei A10” value is 91%. Further, the “Percent substrate removed, S. rochei A14” value in the data set on S. rochei A14 was 72%. The “Percent substrate removed, S. chromofuscus A11” value in the data set on S. chromofuscus A11 came out at 100%. In the data set on S. chromofuscus A20, the “Percent substrate removed, S. chromofuscus A20” value was 5%. For the same compound, in the data set with S. viridosporus T7A, the “Percent substrate removed, S. viridosporus T7A” value was 3%.

Source of the values: patent US5618726A, “Biodegradable azo dyes” (priority 1994, dated 1997).
